Source: article PMC4281523 (Pharmaceutical research, 2013)

Assays:
[1] = cited from earlier work
[2] = assay type: physicochemical; conditions: soybean oil in fed state medium, absence of lipolysis
[3] = Drug release from SEDDS during in vitro digestion, EPR; assay type: physicochemical
[4] = assay type: physicochemical

SMILES	octanol/water partition coefficient (log P) [1]	TB uptake constant into oil, Prel [2] [×10⁻⁶ cm/s]	time of leveling off of drug release [3] [min]	percentage of released drug from SEDDS ([4]; 90 minutes, absence of digestion) [%]	drug released from SEDDS ([4]; over 18 hours, absence of digestive enzyme) [%]	logP [1]
CC1(C)CC(OC(=O)c2ccccc2)CC(C)(C)N1[O] [TB, TEMPOL benzoate]	2.46	0.0352	50	9	14	–
CC(C)(Sc1cc(C(C)(C)C)c(O)c(C(C)(C)C)c1)Sc1cc(C(C)(C)C)c(O)c(C(C)(C)C)c1 [Probucol]	–	–	–	–	–	8.92
